# Reference: patent publication US10226044B2, “Agricultural and horticultural composition and method for cultivating plant” (AJINOMOTO CO., INC., priority 2014, dated 2019)
# Read-outs that look alike come from different tables or passages of the source.
# How the values were obtained:
# [1] = system: Apples (variety, Tsugaru); assay: Anthocyanin content of pericarp of harvested apples immersed in Ile solutions; format: in vivo, apple; settings: immersed 15 minutes in Ile solutions (1, 5, 10 mM) + 0.1% Applauch BI; 10th and 15th days after the treatment; compared to control group
# Description: Apples (variety, Tsugaru) ready to mature (before coloring) were harvested, washed with tap water and then with distilled water, and immersed into water (control) and isoleucine (Ile) aqueous solutions of various concentrations for 15 minutes. To each treatment solution, 0.1% Applauch BI (Kao) was added. The treatment groups consisted of the following groups.
# After the treatment, the apples were air-dried, and left standing in an incubator. The conditions consisted of constant temperature of 20° C., lighting condition of 120 μM/m^2/s obtained with 9 of 40 W fluorescent lamps, and daylength conditions of 16 hours of light period and 8 hours of dark period per day.
# Pericarp color of the apples was evaluated by measuring anthocyanin content. Pericarp (0.5 g) collected from an apple of each treatment group was immersed in 5 mL of 2% formic acid at 4° C. for 24 hours to extract anthocyanin. Anthocyanin contained in the extract was analyzed by liquid chromatography. Since most part of anthocyanin of apple consists of cyanidin galactosides, anthocyanin concentration was calculated as cyanidin galactoside concentration.
# [2] = system: tomato fruit (Suncherry Pure); assay: Coloring and carotenoid content of harvested immature tomato fruit sprinkled with Ile; format: in vivo
# Description: Then, the beakers were closed with plastic wrap, and left for 5 hours; then the wrap was removed, and the fruit were left as they were. The test was performed at room temperature, and the sprinkling of water and Ile solution was performed twice in total at an interval of one week. […] The tomato fruit of which seeds were removed were frozen with liquid nitrogen, and ground in a mortar. […] The extraction mixture was centrifuged for 5 minutes (8000 rpm), and the chloroform layer as the lower layer was transferred to a new tube. Chloroform (0.5 mL) was added again to the former tube, extraction was performed in the same manner, and the chloroform layer was fully taken out, and transferred to the latter tube containing the aforementioned chloroform extract. Then, chloroform was evaporated from the obtained extract by using a centrifugal evaporator. Then, a sample solution was prepared by adding 0.5 mL of chloroform to the residue to dissolve it, and carotenoids contained in the sample solution were analyzed. For the measurement of carotenoids, the extraction sample was diluted 100 times with chloroform, and absorbance thereof was measured at the extinction wavelength of carotenoids (480 nm) by using DU800 Spectrophotometer (Beckman Coulter).
# [3] = system: LOX, JAR1, PI and MYC2 genes; assay: Real-time PCR of jasmonic acid synthesis and response genes in leaves after foliar application; format: in vivo, cherry tomato (Suncherry Pure); settings: 10 mM Ile, 3 hours after foliar application
# Description: Three hours after the foliar application, leaves of the same part were collected, and RNA was isolated by using SV Total RNA Isolation System™ (Promega) according to the manual of the kit. […] Expression of the 13-lipoxygenase (LOX) gene locating in the upstream of the jasmonic acid biosynthesis pathway, and the gene for synthesis of JA-Ile from JA and Ile (JASMONATE RESISTANT 1 (JAR1)) were analyzed. The expression amounts of the genes are represented as relative expression amounts with respect to that of the actin gene. The results of real-time PCR analysis of the jasmonic acid responding genes, protease inhibitor (PI) and MYC2 genes, performed by using the aforementioned cDNAs as the template are shown in FIG. 13. By the sprinkling of Ile, expression of the PI and MYC2 genes were increased.
# [4] = cited from earlier work
# [5] = relative to actin, compared to water (Con.)
structure (smiles),measurement,setting,value
"CC[C@H](C)[C@H](N)C(=O)O [Ile, L-isoleucine]",anthocyanin content of apple pericarp,[1],higher
same,color of harvested fruit around the 27th day,"[2]; 10 mM Ile, 1 mL on six immature fruit, twice at an interval of one week, room temperature, water control still green",began to turn color
same,color of harvested fruit around the 34th day,"[2]; 10 mM Ile, sprinkled twice, water control still half-mature orange",turned color to a fully mature red
same,carotenoid content of the tomato fruit,"[2]; around the 27th day, absorbance at 480 nm, compared to fruit treated with water",higher
same,expression of the MYC2 gene,[3],increased
same,expression of the PI gene,[3],increased
same,Expression of the JAR1 gene in leaves,[3]; [5],significantly higher
same,Expression of the LOX gene in leaves,[3]; [5],significantly higher
same,solubility of isoleucine in water,[4]; 20° C.,40.2 mg/mL
same,solubility of isoleucine in water,[4],about 0.3 M
